The values that follow are results of earlier work, collected in patent US20090117584A1, “Non-Human mammalian Arthritis Model Featuring Human Antibodies Against Citrul-Linated Proteins” (GENMAB A/S, priority 2005, published 2009).

The subject of one data set is anti-CCP antibodies. The settings on record: RA patients; anti-TNFα therapy in combination with low-dose methotrexate.
The test system of the next data set is human IgG. The settings on record: SCID mice engrafted with human RA tissue, treated with T-614.

Regarding “infliximab: anti-TNFalpha therapy, named in the cited title”, the anti-CCP titers entry in the data set on anti-CCP antibodies was “decrease”. Turning to `CS(=O)(=O)Nc1cc2occ(NC=O)c(=O)c2cc1Oc1ccccc1` [T-614], in the data set on human IgG, the “levels of human IgG in SCID-HuRag mice” value is recorded as “decreases”.
